Experimental data: publication PMC8148468, “Shikimic acid protects skin cells from UV-induced senescence through activation of the NAD+-dependent deacetylase SIRT1” (Aging (Albany NY), 2021)
Like-named read-outs stand apart in the source and are kept apart here.

Assays:
[1] = tested on: H4K16ac (the target of SIRT1 and SIRT2); assay: Sirtuin activity assay in HDF: H4K16ac levels (Western blot); assay type: cell-based, human; conditions: HDF treated 24h; for SIRT1,2 H4K16ac: Figure 1B; on SIRT1,2 H4K16ac: key: ↑: increase; ↓: decrease; hyphens that indicate no effect (-)
Procedure: (§1) Figure 1 (A) Schematic representation of the compound testing for sirtuin activity evaluation in HDF. Cells were treated with or without the compounds for 24h and harvested for analysis. […] (C) Western Blot analysis and (D) quantification of H4K16ac and H3K9ac levels in cells treated with Resveratrol or Shikimic acid at the indicated concentrations. H4K16 and H3K9 levels were normalized to H4 and H3 levels respectively. Student T-test, *p<0.05, **p<0.01, ***p<0.001.
(§2) HDFs were plated in 100x20 mm2 cell culture plates and after 24h, fresh cell culture medium containing the compounds was added. After 24h, cells were detached with cell scrapers, harvested, and processed for qPCR or western blot.
(§3) Protein levels were analyzed as previously described. Cells were directly lysed in 1x Laemmli Buffer (Bio-Rad, USA), incubated at 95° C and centrifuged. Supernatant was subjected to SDS-polyacrylamide gel electrophoresis, and successive steps were performed as described. The list of antibodies used is included in Supplementary Table 2.

[2] = tested on: primary human dermal fibroblasts (HDFs)
Excerpt: In our efforts to identify novel factors that could prevent skin cell senescence, we developed a screening process to identify new modulators of the protective role of sirtuins in UV-induced senescence. For this purpose, we established a culture of primary human dermal fibroblasts (HDFs). […] Our first step in the screening was to establish the optimal concentrations of these compounds in the case of HDFs. […] Once established, we took these parameters into account to decide the specific working range of concentrations for each compound.
Human dermal fibroblasts (HDFs) (Promocell, Germany) from 40-year old Caucasian women were used as the in vitro model for compound viability and efficacy screening. Cells were cultured in Dulbecco's modified eagle medium (DMEM) low glucose (Biowest, France) supplemented with 10% fetal bovine serum (FBS) (Capricorn Scientific, Germany) and 10 U/mL penicillin/streptomycin (Biowest, France) in a humidified incubator at 37° C and 5% CO2. For cell passage, cells at 80% confluence were trypsinized and plated at 60% confluence. Cells between passage 13 and 18 were used for the assays. For the SIRT1 in vitro assay, HEK293 cells (ATCC, USA), used to transfect and immunoprecipitate SIRT1 protein, were grown in DMEM high glucose (Thermo Fisher Scientific, USA), supplemented with 10% FBS in a humidified incubator at 37° C and 5% CO2. The following experiments were all performed in triplicate.
(§4) The protocol for senescence induction using UVB irradiation is described in the Supplementary Methods. SA-β-Gal staining, WST-1, sulforhodamine B (SRB) and trypan blue assays were performed as previously described. For the siRNA experiments, the protocol for senescence induction using UVB irradiation was the same as in the Supplementary Methods. Specific siRNA (Horizon discovery, UK) for SIRT1, SIRT2, SIRT6, BiP or scramble siRNA were incubated for 6 hours before each irradiation step.

[3] = tested on: H3K9ac (the target of SIRT1, SIRT2 and SIRT6); assay: Sirtuin activity assay in HDF: H3K9ac levels (Western blot); assay type: cell-based, human; conditions: HDF treated 24h; for SIRT1,2,6 H3K9ac: Figure 1B; on SIRT1,2,6 H3K9ac: key: ↑: increase; ↓: decrease; hyphens that indicate no effect (-)
Procedure: as §1, §2, §3

[4] = tested on: UVB-irradiated human dermal fibroblasts (HDFs); assay: UVB-induced senescence assay: SA-β-Gal staining; assay type: cell-based; conditions: for β-Gal: HDF, 2 cycles of UVB, compound day 1 to 7, Figure 2B; for SA-β-Gal accumulation/staining / prevention of UV-induced cellular senescence / effect of sirtuin inhibitor on the protective effect of SA on senescence (SA-β-Gal and HAS2 expression): UVB-irradiated HDF; for prevention of UV-induced cellular senescence: SA-β-Gal and HAS2 markers; for effect of sirtuin inhibitor on the protective effect of SA on senescence (SA-β-Gal and HAS2 expression): SA 10, 25, 50 mM plus EX-527 1 μM, AGK2 2 μM or OSS128167 200 μM; on β-Gal: key: ↑: increase; ↓: decrease; hyphens that indicate no effect (-)
Procedure: (§5) In the second approach, we established a method for inducing senescence in these cells with 2 cycles of UVB irradiation 72h apart (Figure 2A). The use of UVA to induce senescence was discarded due to its considerably longer time requirement, being unsuitable to screen 30 compounds within a reasonable period. Cells were treated with these compounds throughout the duration of the assay and cellular senescence was monitored with two markers: accumulation of SA-β-galactosidase (SA-β-Gal) activity, and the decrease in expression of HAS2 (hyaluronic acid synthase 2), a previously reported marker of skin senescence.
(§6) Figure 2 (A) Schematic representation of the protocol for senescence induction using UVB irradiation. Cells were treated -/+ the compounds from day 1 to 7 after seeding, irradiated with UVB on days 2 and 5 and harvested for analysis on day 7. […] (C) Phase-contrast (left column) and bright field (right column) microscope images of SA-β-Gal staining showing non-irradiated cells, UVB-irradiated cells non-treated and treated with Gallic acid or Shikimic acid at the indicated concentrations. (D) Percentage of SA-β-Gal positive cells and (E) Relative HAS2 mRNA levels in non-irradiated cells, UVB-irradiated cells and UVB-irradiated cells treated with Gallic acid or Shikimic acid at the indicated concentrations. Student T-test, *p<0.05, **p<0.01, ***p<0.001.
as §4
(§7) Senescence induction by UVB irradiation For the non-irradiation control conditions, HDF were […]
(§8) After 24h, culture medium was removed and well plates. After 24h, culture medium was removed replaced by fresh cell culture medium containing the and replaced with fresh cell culture medium containing compounds at different concentrations. After 24h, the compounds at different concentrations. […]
(§9) cell culture medium was removed, and cells were cells/plate in fresh cell culture medium containing the irradiated at 25 mJ/cm2 of UVB light (312 nm) in a Bio- compound in 6-well plates. After 3 days, cells were […]
(§10) amount of PBS. PBS was then removed and fresh cell fresh cell culture medium containing the compound in culture medium with the compound was added to each 6-well plates. After 2 days, cells were processed well. After 3 days, cells were irradiated again under the according to the qPCR, β-Gal staining, apoptosis, cell same conditions. After 2 days, cells were processed cycle or immunofluorescence protocols. according to the qPCR, β-Gal staining, apoptosis, cell cycle or immunofluorescence protocols.

[5] = tested on: HAS2 (hyaluronic acid synthase 2); assay: UVB-induced senescence assay: HAS2 gene expression (qPCR); assay type: cell-based, human; conditions: HDF, 2 cycles of UVB, compound day 1 to 7, Figure 2B; further: key: ↑: increase; ↓: decrease; hyphens that indicate no effect (-)
Procedure: as §5, §6
RNA was extracted from cell pellets using the Total RNA Purification Kit (Norgen, Canada), according to the manufacturer’s protocol. Extracted RNA was quantified using a NanoDrop® ND-1000 UV-Vis Spectrophotometer (Thermo Fisher Scientific, USA) and 300 ng of RNA were retrotranscribed to cDNA using the PrimeScriptTM RT reagent kit (Takara Bio Inc., Japan). cDNA was diluted 1/10 in ultrapure water and qPCR mix was prepared by adding cDNA (12 ng), SYBR green supermix (Bio Rad, USA), forward and reverse primers (0.2μM). The primers and their respective sequences are listed in Supplementary Table 1. qPCR protocol included one step at 95° C for 30 s, 40 cycles at 95° C for 10s, and 60° C for 1min. The results were analyzed with Bio-Rad CFX Manager software. BACT was used as a housekeeping gene to normalize gene expression.
as §7, §8, §9, §10

[6] = HDFs, WST-1 cell viability test
[7] = HDFs, WST-1 cell viability test, maximum non-cytotoxic dose

Row | SMILES | SIRT1,2 H4K16ac [1] | Max. non-cyt. doses [2] [mM] | SIRT1,2,6 H3K9ac [3] | β-Gal [4] | SA-β-Gal accumulation/staining [4] | effect on H4K16ac levels [1] | LD50 [2, 6] [mM] | Max. non-cyt. doses [2, 7] [mM] | effect on H3K9ac levels [3] | prevention of UV-induced cellular senescence [4] | effect of sirtuin inhibitor on the protective effect of SA on senescence (SA-β-Gal and HAS2 expression) [4] | HAS2 expression [5] | LD50 ([2]; female, human) [mM] | Max. non-cyt. doses ([2]; female, human) [mM]
1 | O=C(O)CCCC[C@@H]1CCSS1 (racemic) [Lipoic acid] | - | 1 | - | - | did not change the level of SA-β-Gal staining |  |  |  |  |  |  |  |  | 
2 | O=Cc1ccc(O)c(O)c1 [3,4-dihydroxybenzaldehyde] |  |  |  |  |  | induced a similar effect on both targets | 1.08 | 0.1 | induced a similar effect on both targets | did not prevent cellular senescence |  |  |  | 
3 | N#C/C(=C\c1ccc(-c2cc(Cl)ccc2Cl)o1)C(=O)Nc1cccc2ncccc12 [AGK2, reference compound] |  |  |  |  |  |  |  |  |  |  | produced no clear effect |  |  | 
4 | NC(=O)NC1NC(=O)NC1=O (stereo not shown) [Allantoin, reference compound] | - |  |  | - |  |  |  |  |  |  |  | - | 100 | 50
5 | C=C1CC[C@@H]2[C@](C)(CO)[C@H](O)CC[C@@]2(C)[C@@H]1C/C=C1/C(=O)OC[C@H]1O [Andrographolide] |  |  |  | - |  | induced a similar effect on both targets | 0.124 | 0.01 | induced a similar effect on both targets | did not prevent cellular senescence |  | - |  | 
6 | C[N+](C)(C)CC(=O)O [Betaine] | - |  | - | - |  |  | 507.81 | 50 |  |  |  | - |  | 
7 | NCCC(=O)N[C@@H](Cc1cnc[nH]1)C(=O)O [Carnosine] | - |  | - | - | did not change the level of SA-β-Gal staining |  | 85.46 | 25 |  |  |  |  |  | 
8 | C/C=C/C(=O)C1=C(C)C=CCC1(C)C [Damascenone] | - | 0.05 | - | - |  |  | 0.121 |  |  |  |  | - |  | 
9 | CC(C)(CO)[C@@H](O)C(=O)NCCCO [Dexpanthenol, reference compound] |  |  |  | - |  | induced a similar effect on both targets |  |  | induced a similar effect on both targets | did not prevent cellular senescence |  | - | 262.48 | 100
10 | CC1=NCC[C@@H](C(=O)O)N1 [Ectoine] | - | 300 |  | - |  |  | 359.12 |  | reduced the levels of H3K9ac only |  |  | - |  | 
11 | COc1cc(/C=C/C(=O)O)ccc1O [Ferulic acid] | - | 7.5 | - | - | did not change the level of SA-β-Gal staining |  | 16.5 |  |  |  |  |  |  | 
12 | O=C(O)c1cc(O)c(O)c(O)c1 [Gallic acid] | - |  | - | - |  |  |  |  |  |  |  |  | 0.179 | 0.1
13 | C=C[C@@H]1C2=CCOC(=O)C2=CO[C@H]1O[C@@H]1O[C@H](CO)[C@@H](O)[C@H](O)[C@H]1O [Gentiopicrin] |  |  | - | - |  |  | 13.825 |  |  |  |  | - |  | 2.5
14 | COC1=C(OC)C(=O)C(CCCCCCCCCCO)=C(C)C1=O [Idebenone, reference compound] |  |  | - | - |  |  |  |  |  |  |  | - | 0.021 | 0.01
15 | COc1cc(-c2coc3cc4c(c(OC)c3c2=O)OCO4)cc(OC)c1OC [Irisflorentin] | - |  | - | - |  |  | 0.049 | 0.01 |  |  |  |  |  | 
16 | O=C(Nc1ccc(O)c(C(=O)O)c1)c1cccc(NC(=O)c2ccco2)c1 [OSS128167, reference compound] |  |  |  |  |  |  |  |  |  |  | produced no clear effect |  |  | 
17 | O=C(CCc1ccc(O)cc1)c1c(O)cc(O)cc1O [Phloretin] |  |  | - | - |  | had an effect solely on H4K16ac |  |  |  |  |  |  | 0.166 | 0.05
18 | C=C[C@](C)(O)CC[C@@H]1[C@@]2(C)CCCC(C)(C)[C@@H]2CC[C@@]1(C)O [Sclareol] |  |  | - | - |  |  | 0.04 | 0.02 |  |  |  | - |  | 
19 | NCCS(=O)(=O)O [Taurine] | - |  | - | - | did not change the level of SA-β-Gal staining |  |  |  |  |  |  |  | 396.58 | 150
20 | C[C@@H]1O[C@@H](O[C@@H]2[C@@H](O)[C@H](OCCc3ccc(O)c(O)c3)O[C@H](CO)[C@H]2OC(=O)/C=C/c2ccc(O)c(O)c2)[C@H](O)[C@H](O)[C@H]1O [Verbascoside] | - |  | - | - | did not change the level of SA-β-Gal staining |  | 0.122 | 0.05 |  |  |  |  |  | 
